The values that follow are results of earlier work, collected in patent US20080077374A1, “Method for predicting biological, biochemical, biophysical or pharmacological characteristics of a substance” (priority 2006, published 2008).

Like-named read-outs stand apart in the source and are kept apart here.

The test system of data set [1] is male Sprague Dawley rats. The conditions noted are these: for Diagnosis cc: clinical chemistry; for Diagnosis histo: histopathology; for Main target: main toxicity target; for observed severity of histological lesions: liver, labelled by COMET1 study number.
Data set [2] relates to HanWistar rats. The following applies: HanWistar rats (study R12).
[3] abbreviates: SpragueDawley rats, refinement of the principal toxicity.

As for `CC(=O)Nc1nnc(S(N)(=O)=O)s1` [Acetazolamide], in data set [1] (rat, in vivo), the 2nd toxicity result is given as “Papilla”.
In the case of `CN[C@H](CC(C)C)C(=O)N[C@H]1C(=O)N[C@@H](CC(N)=O)C(=O)N[C@H]2C(=O)N[C@H]3C(=O)N[C@H](C(=O)N[C@H](C(=O)O)c4cc(O)cc(O)c4-c4cc3ccc4O)[C@H](O)c3ccc(c(Cl)c3)Oc3cc2cc(c3O[C@@H]2O[C@H](CO)[C@@H](O)[C@H](O)[C@H]2O[C@H]2C[C@](C)(N)[C@H](O)[C@H](C)O2)Oc2ccc(cc2Cl)[C@H]1O` [Vancomycin], in data set [1] (SpragueDawley rats), the Subclass/Indication result is on record as “Toxicant”, the Diagnosis cc result is listed as “+”, the Diagnosis histo was 3reg and the Main target result is recorded as “Nephrotoxic”. For the same compound, in data set [1] (setting [3]), the 2nd toxicity entry is “Proximal”.
Take `CN(Cc1cnc2nc(N)nc(N)c2n1)c1ccc(C(=O)N[C@@H](CCC(=O)O)C(=O)O)cc1` [Methotrexate]: in data set [1] (SpragueDawley rats), the Subclass/Indication result is listed as “Toxicant”, the Diagnosis cc entry is given as “−”, the Diagnosis histo was 1hea and the Main target entry was “Hemotoxic”. Besides, the 2nd toxicity entry in data set [1] (rat, in vivo) is listed as “Liver & kidney”.
Turning to Gentamicin, in data set [1] (SpragueDawley rats), the Subclass/Indication entry is “Toxin”, the Diagnosis cc entry is “+”, the Diagnosis histo is reported as 3sub and the Main target entry was “Nephrotoxic”. For the same compound, in data set [1] (setting [3]), the 2nd toxicity entry is reported as “Proximal”.
Regarding `CNC=O` [N-methylformamid], in data set [1] (SpragueDawley rats), the Subclass/Indication entry is listed as “Toxicant”, the Diagnosis cc result is listed as “+”, the Diagnosis histo is 2 and the Main target result is “Hepatotoxic”. Moreover, the 2nd toxicity entry in data set [1] (setting [3]) is on record as “Direct reaction”.
For the compound `O=C(O)/C=C\C(=O)O` [Maleic acid], the 2nd toxicity entry in data set [1] (rat, in vivo) is “Proximal”.
Take `CN(C)N=O` [Di-methylnitrosamin]: in data set [1] (SpragueDawley rats), the Subclass/Indication entry is given as “Toxicant”, the Diagnosis cc result is reported as “+”, the Diagnosis histo is listed as 2 and the Main target entry is recorded as “Hepatotoxic”. In addition, in data set [1] (setting [3]), the 2nd toxicity entry is listed as “Direct reaction”. The “observed severity of histological lesions” value in data set [1] is reported as “marked liver lesions”.
In the case of `CO[C@@]12[C@H](COC(N)=O)C3=C(C(=O)C(C)=C(N)C3=O)N1C[C@@H]1N[C@@H]12` [Mitomycin], the Diagnosis histo in data set [1] (SpragueDawley rats) is 1hae. Besides, the 2nd toxicity result in data set [1] (rat, in vivo) was “Tubules, blood”.
Regarding `NN` [Hydrazine], the 2nd toxicity result in data set [2] and in data set [1] (setting [3]) was “Steatosis” throughout. Also, the Subclass/Indication entry in data set [2] and in data set [1] (SpragueDawley rats) was “Toxicant” throughout. The Diagnosis cc entry in data set [2] (clinical chemistry) and in data set [1] (SpragueDawley rats) was “+” in each case. For the same compound, the Diagnosis histo in data set [2] (histopathology) and in data set [1] (SpragueDawley rats) was 7 each time. Further, the Main target result in data set [2] (main toxicity target) and in data set [1] (SpragueDawley rats) was “Hepatotoxic” each time.
For `[Cl][Hg][Cl]` [Mercury Chloride], in data set [1] (SpragueDawley rats), the Subclass/Indication result was “Toxicant”, the Diagnosis cc entry was “+”, the Diagnosis histo is listed as 3 and the Main target result was “Nephrotoxic”. Moreover, the 2nd toxicity entry in data set [1] (setting [3]) is recorded as “Proximal”.
Turning to `S=C=Nc1cccc2ccccc12` [ANIT], in data set [1] (SpragueDawley rats), the Diagnosis cc result is recorded as “+”, the Diagnosis histo is reported as 2bil and the Main target entry is “Hepatotoxic”. In data set [1], the “observed severity of histological lesions” value was “no or minimal liver lesions”.
Turning to `CCOC(=O)C(C)(C)Oc1ccc(Cl)cc1` [Clofibrate], in data set [1] (SpragueDawley rats), the Subclass/Indication result was “Toxicant”, the Diagnosis cc entry was “+”, the Diagnosis histo is listed as 9sub and the Main target entry is given as “Hepatotoxic”. For the same compound, the “observed severity of histological lesions” value in data set [1] is “no or minimal liver lesions”. Also, in data set [1] (rat, in vivo), the 2nd toxicity entry was “Peroxisome”.
For `Cl.N` [Ammonium Chloride], in data set [1] (SpragueDawley rats), the Subclass/Indication result is recorded as “Non-Toxic”, the Diagnosis cc result was “+”, the Diagnosis histo is reported as 0 and the Main target result is recorded as “Kidney”. The Tox class entry in data set [1] (SpragueDawley rats, highest dose level, pathology at 48 h post dose, assumed organ toxicity class) is “ntx”. Further, in data set [1] (setting [3]), the 2nd toxicity result is given as “Metabolic”.
